In US5434154A, “Antimigraine 4-pyrimidinyl and pyridinyl derivatives of indol-3yl-alkylpiperazines” (Bristol-Myers Squibb Company, priority 1994, dated 1995):
Structures can show the parent of a compound that is named as a salt.

What was measured:
[1] = tested on: migraine sufferers; details: cited from earlier work
[2] = molecular target: T1, 5-HT1D (Bos taurus, UniProt F1MGM3); assay: 5-HT1D binding (displacement of tritiated serotonin); details: in vitro, Table 2
T1 construct: methodology such as that described by Heuring and Peroutka, J. Neurosci., 7(3), 1987, 894-903; with only minor modifications; from tissue
Procedure: Determination of 5-HT1D binding properties was accomplished employing methodology such as that described by Heuring and Peroutka, J. Neurosci., 7(3), 1987, 894-903; with only minor modifications. In vitro IC50 (nM) test values were determined for the compounds of this invention employing tritiated serotonin.

[3] = tested on: migraine; details: cited from earlier work

T1 sequence (F1MGM3 1-403): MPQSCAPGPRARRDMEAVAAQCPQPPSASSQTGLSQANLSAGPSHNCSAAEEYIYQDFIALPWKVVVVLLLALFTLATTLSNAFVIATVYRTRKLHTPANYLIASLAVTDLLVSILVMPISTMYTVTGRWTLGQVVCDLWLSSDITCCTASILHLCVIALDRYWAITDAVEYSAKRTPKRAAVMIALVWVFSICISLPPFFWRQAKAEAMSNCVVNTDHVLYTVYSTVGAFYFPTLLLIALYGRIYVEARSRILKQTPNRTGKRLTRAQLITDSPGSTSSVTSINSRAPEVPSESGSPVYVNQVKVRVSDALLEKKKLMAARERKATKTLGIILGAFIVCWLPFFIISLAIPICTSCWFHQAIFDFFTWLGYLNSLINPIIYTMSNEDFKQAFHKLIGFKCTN

COC(=O)[C@H]1[C@H]2C[C@@H]3c4[nH]c5cc(OC)ccc5c4CCN3C[C@H]2C[C@@H](OC(=O)c2cc(OC)c(OC)c(OC)c2)[C@@H]1OC [reserpine]
induction of headache in migraine sufferers ([1]; in vivo): induces a typical migraine-type headache in migraine sufferers
plasma serotonin ([1]; intramuscular injection): lowers plasma serotonin

COc1cncnc1N1CCN(CCCc2c[nH]c3ccc(F)cc23)CC1 [Example 64]
IC50 [2]: 1.5 nM

NCCc1c[nH]c2ccc(O)cc12 [serotonin]
effect in treating migraine attacks ([1]; in vivo): effective in treating migraine attacks
side-effects in migraine use ([1]; in vivo): restlessness, nausea, faintness, hyperpnea, facial flushing and parasthesias

COc1cncnc1N1CCN(CCCc2c[nH]c3ccc(N(C)S(C)(=O)=O)cc23)CC1C (centres unmarked) [Example 70]
IC50 [2]: 11 nM

CN1C[C@H](C(=O)N[C@]2(C)O[C@@]3(O)[C@@H]4CCCN4C(=O)[C@H](Cc4ccccc4)N3C2=O)C=C2c3cccc4[nH]cc(c34)C[C@H]21 [ergotamine]
dependence ([3]; extended use): cause dependence with extended use

CC[C@@H](CO)NC(=O)[C@@H]1C=C2c3cccc4c3c(cn4C)C[C@H]2N(C)C1 [methysergide]
side-effects ([3]; long term usage): severe use-limiting side-effects with long term usage

NCCc1c[nH]c2ccc(O)cc12 [serotonin creatinine sulfate]
alleviation of reserpine-induced headache ([1]; slow I.V. injection): This induced headache can be alleviated

COc1cncnc1N1CCN(CCCc2c[nH]c3ccc(CS(N)(=O)=O)cc23)CC1 [Example 81]
IC50 [2]: 7.9 nM

COc1cncnc1N1CCN(CCCc2c[nH]c3ccc(NS(C)(=O)=O)cc23)CC1C (centres unmarked) [Example 68]
IC50 [2]: 9.6 nM

CNS(=O)(=O)Cc1ccc2[nH]cc(CCCN3CCN(c4ccncc4OC)CC3)c2c1 [Example 61, 4-(5-Methoxy-4-pyridinyl)-1-[3-[5-[[(methylamino)sulfonyl]methyl]-1H-indol-3-yl]propyl]piperazine hydrochloride]
IC50 [2]: 1 nM

COc1cncnc1N1CCN(CCCc2c[nH]c3ccc(CC(=O)NCc4ccccc4)cc23)CC1 [Example 84]
IC50 [2]: 4.6 nM

COc1cnccc1N1CCN(CCCc2c[nH]c3ccccc23)CC1 [Example 62, 1-[3-(1H-indol-3-yl)propyl]-4-(3-methoxy-4-pyridinyl)piperazine dihydrochloride]
IC50 [2]: 10 nM
